Structures are written as SMILES.

In this assay the test system is Spodoptera littoralis. Put plainly: Antifeedant activity against Spodoptera littoralis using glass-fibre disks at 100 ppm measured after 18 hr by binary choice feeding bioassay relative to control. The format is functional.
Consider `C[C@@H]1C[C@@H](O)[C@@]23COC(=O)C2=CCC[C@@H]3[C@@]12C[C@@H](c1ccoc1)OC2=O` [6BETA-HYDROXYTEUSCORDIN], for which the AFI was determined as 73.1%.
The same measure for `C[C@@H]1C[C@@H](O)[C@@]2(CO)C(CO)=C[C@@H](O)C[C@@H]2[C@@]12C[C@@H](c1ccoc1)OC2=O` [19-DEACETYLTEUSCORODOL]: -54.5%.
Then `CC(=O)OC[C@@]12CCC[C@@H]3[C@@]4(C[C@@H](c5ccoc5)OC4=O)[C@H](C)C[C@@H](OC(C)=O)[C@]31CO2` [DIACETYLMONTANIN D], with 34.6%; and `C[C@@H]1C[C@@H](O)[C@@]23COC(=O)C2C[C@@H](O)C[C@@H]3[C@@]12C[C@@H](c1ccoc1)OC2=O` (some centres undefined) [DIHYDROTEUGIN], with -1.2%; and `C[C@@H]1C[C@@H]2OC(=O)C3=C2[C@H](CC[C@@H]3O)[C@@]12C[C@@H](c1ccoc1)OC2=O` [ISOTEUFLIFIN], with 11%.
Consider `C[C@@H]1C[C@@H](O)[C@@]23CO[C@]2(CO)CCC[C@@H]3[C@@]12C[C@@H](c1ccoc1)OC2=O` [MONTANIN D], for which the AFI turned out to be 82.1%.
Consider `C[C@@H]1C[C@@H]2OC(=O)C3=C2[C@H](CCC3)[C@@]12C[C@@H](c1ccoc1)OC2=O` [TEUCVIN], for which the AFI worked out at 52.2%.
`C[C@@H]1C[C@@H](O)[C@@]23COC(=O)C2=C[C@@H](O)C[C@@H]3[C@@]12C[C@@H](c1ccoc1)OC2=O` [TEUGIN]: the AFI was determined as 11.1%.
Then `C[C@@H]1CC(=O)[C@@]23COC(=O)C2=CCC[C@@H]3[C@@]12C[C@@H](c1ccoc1)OC2=O` [TEUSCORDINON], with 55.7%.

The values are drawn from ChEMBL document CHEMBL3046185, “Antifeedant activity of neo-clerodane diterpenoids from Teucrium arduini” (2002).
